# ChEMBL document CHEMBL1201861, “Genomics of Drug Sensitity in Cancer screening data, Wellcome Trust Sanger Institute”
# Experiments:
# Assay in all cases: cells
# COLO-824 = assay type: functional, cell-based, Homo sapiens; conditions: Homo sapiens, COLO-824
# Description: SANGER: Inhibition of human COLO-824 cell growth in a cell viability assay.
# D-247MG = assay type: functional, cell-based, Homo sapiens; conditions: Homo sapiens, D-247MG
# Description: SANGER: Inhibition of human D-247MG cell growth in a cell viability assay.
# DMS-114 = assay type: functional, cell-based, Homo sapiens; conditions: Homo sapiens, DMS-114
# EFM-19 = assay type: functional, cell-based, Homo sapiens; conditions: Homo sapiens, EFM-19;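 note: growth inhibition of human EFM-19 cells, measured in a cell viability assay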
# Description: SANGER: Inhibition of human EFM-19 cell growth in a cell viability assay.
# EW-16 = assay type: functional, cell-based, Homo sapiens; conditions: Homo sapiens, EW-16;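 note: growth inhibition of human EW-16 cells, read out as cell viability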
# Description: SANGER: Inhibition of human EW-16 cell growth in a cell viability assay.
# GAMG = assay type: functional, cell-based, Homo sapiens; conditions: Homo sapiens, GAMG;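 note: cell growth inhibition measured by a viability assay in the GAMG human cell line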
# Description: SANGER: Inhibition of human GAMG cell growth in a cell viability assay.
# GB-1 = assay type: functional, cell-based, Homo sapiens; conditions: Homo sapiens, GB-1;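 note: growth of GB-1 cells judged by a viability assay, IC50 marks the concentration inhibiting growth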
# Description: SANGER: Inhibition of human GB-1 cell growth in a cell viability assay.
# GP5d = assay type: functional, cell-based, Homo sapiens; conditions: Homo sapiens, GP5d;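 note: growth inhibition of human GP5d cells, read out with a cell viability assay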
# Description: SANGER: Inhibition of human GP5d cell growth in a cell viability assay.
# HSC-2 = assay type: functional, cell-based, Homo sapiens; conditions: Homo sapiens, HSC-2;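 note: growth inhibition of human HSC-2 cells, read out by a cell viability assay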
# Description: SANGER: Inhibition of human HSC-2 cell growth in a cell viability assay.
# HSC-3 = assay type: functional, cell-based, Homo sapiens; conditions: Homo sapiens, HSC-3
# Description: SANGER: Inhibition of human HSC-3 cell growth in a cell viability assay.
# HT-1376 = assay type: functional, cell-based, Homo sapiens; conditions: Homo sapiens, HT-1376
# Description: SANGER: Inhibition of human HT-1376 cell growth in a cell viability assay.
# IGR-1 = assay type: functional, cell-based, Homo sapiens; conditions: Homo sapiens, IGR-1;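 note: growth inhibition of human IGR-1 cells, read out with a cell viability assay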
# Description: SANGER: Inhibition of human IGR-1 cell growth in a cell viability assay.
# JVM-2 = assay type: functional, cell-based; conditions: Homo sapiens;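 note: growth inhibition of JVM-2 cells determined by a cell viability assay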
# Description: SANGER: Inhibition of human JVM-2 cell growth in a cell viability assay.
# KYSE-180 = assay type: functional, cell-based, Homo sapiens; conditions: Homo sapiens, KYSE-180;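 note: growth inhibition of KYSE-180 cells, read out with a cell viability assay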
# Description: SANGER: Inhibition of human KYSE-180 cell growth in a cell viability assay.
# KYSE-510 = assay type: functional, cell-based, Homo sapiens; conditions: Homo sapiens, KYSE-510;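 note: cell viability readout used to measure how strongly growth of the cell line is suppressed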
# Description: SANGER: Inhibition of human KYSE-510 cell growth in a cell viability assay.
# LB1047-RCC = assay type: functional, cell-based, Homo sapiens; conditions: Homo sapiens, LB1047-RCC;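 note: inhibition of cell growth, determined with a cell viability assay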
# Description: SANGER: Inhibition of human LB1047-RCC cell growth in a cell viability assay.
# LS-411N = assay type: functional, cell-based, Homo sapiens; conditions: Homo sapiens, LS-411N
# M059J = assay type: functional, cell-based, Homo sapiens; conditions: Homo sapiens, M059J;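 note: growth inhibition of M059J cells, read out with a cell viability assay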
# Description: SANGER: Inhibition of human M059J cell growth in a cell viability assay.
# MHH-ES-1 = assay type: functional, cell-based, Homo sapiens; conditions: Homo sapiens, MHH-ES-1;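 note: cell growth inhibition measured by a cell viability assay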
# Description: SANGER: Inhibition of human MHH-ES-1 cell growth in a cell viability assay.
# MLMA = assay type: functional, cell-based, Homo sapiens; conditions: Homo sapiens, MLMA;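 note: growth inhibition of MLMA cells (human), determined through a cell viability readout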
# Description: SANGER: Inhibition of human MLMA cell growth in a cell viability assay.
# MS-1 = assay type: functional, cell-based; conditions: Homo sapiens
# Description: SANGER: Inhibition of human MS-1 cell growth in a cell viability assay.
# MeWo = assay type: functional, cell-based, Homo sapiens; conditions: Homo sapiens, MeWo;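 note: growth inhibition of MeWo cells, determined by a cell viability readout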
# Description: SANGER: Inhibition of human Mewo cell growth in a cell viability assay.
# NB13 = assay type: functional, cell-based, Homo sapiens; conditions: Homo sapiens, NB13;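 note: cell viability readout measuring growth inhibition of human NB13 cells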
# Description: SANGER: Inhibition of human NB13 cell growth in a cell viability assay.
# NB6 = assay type: functional, cell-based, Homo sapiens; conditions: Homo sapiens, NB6;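 note: growth inhibition of NB6 cells, read out by a cell viability assay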
# Description: SANGER: Inhibition of human NB6 cell growth in a cell viability assay.
# NCI-H1299 = assay type: functional, cell-based, Homo sapiens; conditions: Homo sapiens, NCI-H1299;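 note: growth inhibition of human NCI-H1299 cells, read out by a cell viability assay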
# Description: SANGER: Inhibition of human NCI-H1299 cell growth in a cell viability assay.
# NCI-H1993 = assay type: functional, cell-based, Homo sapiens; conditions: Homo sapiens, NCI-H1993;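 note: growth inhibition of the cancer cell line, assessed with a cell viability assay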
# Description: SANGER: Inhibition of human NCI-H1993 cell growth in a cell viability assay.
# NCI-H2030 = assay type: functional, cell-based, Homo sapiens; conditions: Homo sapiens, NCI-H2030;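 note: growth inhibition of human NCI-H2030 cells, read out by a cell viability assay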
# Description: SANGER: Inhibition of human NCI-H2030 cell growth in a cell viability assay.
# NCI-H2170 = assay type: functional, cell-based, Homo sapiens; conditions: Homo sapiens, NCI-H2170;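 note: cell viability assay measuring growth inhibition of human NCI-H2170 cancer cells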
# Description: SANGER: Inhibition of human NCI-H2170 cell growth in a cell viability assay.
# NCI-H226 = assay type: functional, cell-based, Homo sapiens; conditions: Homo sapiens, NCI-H226;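 note: cell viability read-out used to gauge growth inhibition of the cells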
# Description: SANGER: Inhibition of human NCI-H226 cell growth in a cell viability assay.
# NCI-H2342 = assay type: functional, cell-based; conditions: Homo sapiens;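 note: growth inhibition of the cancer cell line, determined with a cell viability assay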
# Description: SANGER: Inhibition of human NCI-H2342 cell growth in a cell viability assay.
# NCI-H2452 = assay type: functional, cell-based, Homo sapiens; conditions: Homo sapiens, NCI-H2452;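 note: growth inhibition of NCI-H2452 cells, read out with a cell viability assay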
# Description: SANGER: Inhibition of human NCI-H2452 cell growth in a cell viability assay.
# NCI-H727 = assay type: functional, cell-based, Homo sapiens; conditions: Homo sapiens, NCI-H727;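 note: growth inhibition of human NCI-H727 cells, read out with a cell viability assay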
# Description: SANGER: Inhibition of human NCI-H727 cell growth in a cell viability assay.
# NOS-1 = assay type: functional, cell-based, Homo sapiens; conditions: Homo sapiens, NOS-1;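 note: growth inhibition of the human NOS-1 cell line, read out with a cell viability assay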
# Description: SANGER: Inhibition of human NOS-1 cell growth in a cell viability assay.
# RCC10RGB = assay type: functional, cell-based, Homo sapiens; conditions: Homo sapiens, RCC10RGB;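 note: growth inhibition of human RCC10RGB cells, read out by a cell viability assay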
# Description: SANGER: Inhibition of human RCC10RGB cell growth in a cell viability assay.
# RO82-W-1 = assay type: functional, cell-based, Homo sapiens; conditions: Homo sapiens, RO82-W-1;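 note: growth inhibition of human RO82-W-1 cells, measured with a cell viability assay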
# Description: SANGER: Inhibition of human RO82-W-1 cell growth in a cell viability assay.
# SK-LU-1 = assay type: functional, cell-based, Homo sapiens; conditions: Homo sapiens, SK-LU-1;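 note: cell viability assay measuring growth inhibition of human SK-LU-1 cells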
# Description: SANGER: Inhibition of human SK-LU-1 cell growth in a cell viability assay.
# SNB-75 = assay type: functional, cell-based, Homo sapiens; conditions: Homo sapiens, SNB-75;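 note: cell viability assay measuring growth inhibition of human SNB-75 cells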
# Description: SANGER: Inhibition of human SNB75 cell growth in a cell viability assay.
# SW1710 = assay type: functional, cell-based, Homo sapiens; conditions: Homo sapiens, SW1710;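 note: growth inhibition of SW1710 cells, determined with a cell viability assay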
# Description: SANGER: Inhibition of human SW1710 cell growth in a cell viability assay.
# SW1783 = assay type: functional, cell-based; conditions: Homo sapiens;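 note: cell growth inhibition measured with a viability assay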
# Description: SANGER: Inhibition of human SW1783 cell growth in a cell viability assay.
# SW684 = assay type: functional, cell-based, Homo sapiens; conditions: Homo sapiens, SW684;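 note: growth inhibition of human SW684 cells, measured by a cell viability assay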
# Description: SANGER: Inhibition of human SW684 cell growth in a cell viability assay.
# T47D = assay type: functional, cell-based, Homo sapiens; conditions: Homo sapiens, T47D;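 note: growth inhibition of human T47D cells, measured with a cell viability assay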
# Description: SANGER: Inhibition of human T47D cell growth in a cell viability assay.
# 769-P = assay type: functional, cell-based, Homo sapiens; conditions: Homo sapiens, 769-P
# Description: SANGER: Inhibition of human 769-P cell growth in a cell viability assay.
# A101D = assay type: functional, cell-based, Homo sapiens; conditions: Homo sapiens, A101D;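 note: growth inhibition of the cell line, measured with a viability assay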
# Description: SANGER: Inhibition of human A101D cell growth in a cell viability assay.
# A253 cell line = assay type: functional, cell-based, Homo sapiens; conditions: Homo sapiens, A253;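 note: growth inhibition of A253 cells, read out with a cell viability assay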
# Description: SANGER: Inhibition of human A253 cell growth in a cell viability assay.
# A-375 = assay type: functional, cell-based, Homo sapiens; conditions: Homo sapiens, A-375;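 note: growth inhibition of A375 cells, read out with a cell viability assay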
# Description: SANGER: Inhibition of human A375 cell growth in a cell viability assay.
# A388 = assay type: functional, cell-based, Homo sapiens; conditions: Homo sapiens, A388;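 note: growth inhibition of human A388 cells, read out with a cell viability assay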
# Description: SANGER: Inhibition of human A388 cell growth in a cell viability assay.
# AU565 = assay type: functional, cell-based, Homo sapiens; conditions: Homo sapiens, AU565;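 note: cell viability assay measuring growth inhibition of human AU565 cells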
# Description: SANGER: Inhibition of human AU565 cell growth in a cell viability assay.
# C8166 = assay type: functional, cell-based; conditions: Homo sapiens;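 note: growth inhibition of human C8166 cells measured by a cell viability assay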
# Description: SANGER: Inhibition of human C8166 cell growth in a cell viability assay.
# UACC-893 = assay type: functional, cell-based, Homo sapiens; conditions: Homo sapiens, UACC-893
# Description: SANGER: Inhibition of human UACC-893 cell growth in a cell viability assay.
# UMC-11 = assay type: functional, cell-based, Homo sapiens; conditions: Homo sapiens, UMC-11;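 note: growth inhibition of UMC-11 cells, read out with a cell viability assay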
# Description: SANGER: Inhibition of human UMC-11 cell growth in a cell viability assay.
structure (smiles),measurement,setting,value
O=C1N=C(NCc2cccs2)S/C1=C\c1ccc2ncccc2c1,IC50,COLO-824,> 5 µM
same,IC50,D-247MG,> 5 µM
same,IC50,DMS-114,> 5 µM
same,IC50,EFM-19,> 5 µM
same,IC50,EW-16,> 5 µM
same,IC50,GAMG,> 5 µM
same,IC50,GB-1,> 5 µM
same,IC50,GP5d,> 5 µM
same,IC50,HSC-2,> 5 µM
same,IC50,HSC-3,> 5 µM
same,IC50,HT-1376,> 5 µM
same,IC50,IGR-1,> 5 µM
same,IC50,JVM-2,> 5 µM
same,IC50,KYSE-180,> 5 µM
same,IC50,KYSE-510,> 5 µM
same,IC50,LB1047-RCC,3.24 µM
same,IC50,LS-411N,> 5 µM
same,IC50,M059J,> 5 µM
same,IC50,MHH-ES-1,> 5 µM
same,IC50,MLMA,> 5 µM
same,IC50,MS-1,> 5 µM
same,IC50,MeWo,> 5 µM
same,IC50,NB13,> 5 µM
same,IC50,NB6,> 5 µM
same,IC50,NCI-H1299,> 5 µM
same,IC50,NCI-H1993,> 5 µM
same,IC50,NCI-H2030,> 5 µM
same,IC50,NCI-H2170,> 5 µM
same,IC50,NCI-H226,> 5 µM
same,IC50,NCI-H2342,> 5 µM
same,IC50,NCI-H2452,> 5 µM
same,IC50,NCI-H727,> 5 µM
same,IC50,NOS-1,> 5 µM
same,IC50,RCC10RGB,> 5 µM
same,IC50,RO82-W-1,> 5 µM
same,IC50,SK-LU-1,> 5 µM
same,IC50,SNB-75,> 5 µM
same,IC50,SW1710,1.61 µM
same,IC50,SW1783,> 5 µM
same,IC50,SW684,> 5 µM
same,IC50,T47D,> 5 µM
same,IC50,769-P,> 5 µM
same,IC50,A101D,> 5 µM
same,IC50,A253 cell line,> 5 µM
same,IC50,A-375,> 5 µM
same,IC50,A388,> 5 µM
same,IC50,AU565,> 5 µM
same,IC50,C8166,> 5 µM
same,IC50,UACC-893,> 5 µM
same,IC50,UMC-11,> 5 µM
CCOc1nc(NC(=O)Cc2cc(OC)ccc2OC)cc(N)c1C#N,IC50,COLO-824,> 10 µM
same,IC50,D-247MG,> 10 µM
same,IC50,DMS-114,> 10 µM
same,IC50,EFM-19,> 10 µM
same,IC50,EW-16,> 10 µM
same,IC50,GAMG,> 10 µM
same,IC50,GB-1,> 10 µM
same,IC50,GP5d,> 10 µM
same,IC50,HSC-2,> 10 µM
same,IC50,HSC-3,> 10 µM
same,IC50,HT-1376,> 10 µM
same,IC50,IGR-1,> 10 µM
same,IC50,JVM-2,> 10 µM
same,IC50,KYSE-180,> 10 µM
same,IC50,KYSE-510,> 10 µM
same,IC50,LB1047-RCC,> 10 µM
same,IC50,LS-411N,> 10 µM
same,IC50,M059J,> 10 µM
same,IC50,MHH-ES-1,> 10 µM
same,IC50,MLMA,> 10 µM
same,IC50,MS-1,> 10 µM
same,IC50,MeWo,> 10 µM
same,IC50,NB13,> 10 µM
same,IC50,NB6,> 10 µM
same,IC50,NCI-H1299,> 10 µM
same,IC50,NCI-H1993,> 10 µM
same,IC50,NCI-H2030,> 10 µM
same,IC50,NCI-H2170,> 10 µM
same,IC50,NCI-H226,> 10 µM
same,IC50,NCI-H2342,> 10 µM
same,IC50,NCI-H2452,> 10 µM
same,IC50,NCI-H727,> 10 µM
same,IC50,NOS-1,> 10 µM
same,IC50,RCC10RGB,> 10 µM
same,IC50,RO82-W-1,> 10 µM
same,IC50,SK-LU-1,> 10 µM
same,IC50,SNB-75,> 10 µM
same,IC50,SW1710,> 10 µM
same,IC50,SW1783,> 10 µM
same,IC50,SW684,> 10 µM
same,IC50,T47D,> 10 µM
same,IC50,769-P,> 10 µM
same,IC50,A101D,> 10 µM
same,IC50,A253 cell line,> 10 µM
same,IC50,A-375,> 10 µM
same,IC50,A388,> 10 µM
same,IC50,AU565,> 10 µM
same,IC50,C8166,> 10 µM
same,IC50,UACC-893,> 10 µM
same,IC50,UMC-11,> 10 µM
